Assays:
Test in all cases: Kinase activity detection (Eurofins)
Type in all cases: biochemical
ZAP-70 = biological target: T1, ZAP-70 (Homo sapiens, UniProt P43403); conditions: ZY0511 1 µM, read-out: Activation rate
T1 construct: purchased Eurofins Pharma Discovery Services (KinaseProfiler)
Description: (§1) The activity of ZY0511 against 104 cancer‐related kinases was carried out by Eurofins Pharma Discovery Services (Celle Lévescault, France).

Ros = biological target: T2, Ros (Homo sapiens, UniProt P08922); conditions: ZY0511 1 µM, read-out: Inhibition rate
T2 construct: purchased Eurofins Pharma Discovery Services
Description: as §1

EphA2 = biological target: T3, EphA2 (Homo sapiens, UniProt P29317); conditions: ZY0511 1 µM, read-out: Activation rate
T3 construct: purchased Eurofins Pharma Discovery Services (KinaseProfiler)
Description: as §1

Aurora-A = biological target: T4, Aurora-A (Homo sapiens, UniProt O14965); conditions: ZY0511 1 µM, read-out: Inhibition rate
T4 construct: purchased Eurofins Pharma Discovery Services (KinaseProfiler)
Description: as §1

PKCι = biological target: T5, PKCι (Homo sapiens, UniProt P41743); conditions: ZY0511 1 µM, read-out: Inhibition rate
T5 construct: purchased Eurofins Pharma Discovery Services
Description: as §1

[1] = biological target: T6, PI3 Kinase (p110α (E542K)/p85α) (Homo sapiens, UniProt P42336, E542K); conditions: ZY0511 1 µM, read-out: Inhibition rate
T6 construct: purchased Eurofins Pharma Discovery Services
Description: as §1

PKBα = biological target: T7, PKBα (Homo sapiens, UniProt P31749); conditions: ZY0511 1 µM, read-out: Inhibition rate
T7 construct: purchased Eurofins Pharma Discovery Services (KinaseProfiler)
Description: as §1

FGFR2 = biological target: T8, FGFR2 (Homo sapiens, UniProt P21802); conditions: ZY0511 1 µM, read-out: Inhibition rate
T8 construct: purchased Eurofins Pharma Discovery Services
Description: as §1

Flt4 = biological target: T9, Flt4 (Homo sapiens, UniProt P35916)
T9 construct: purchased Eurofins Pharma Discovery Services
Description: as §1

PKCθ = biological target: T10, PKCθ (Homo sapiens, UniProt Q04759); conditions: ZY0511 1 µM, read-out: Inhibition rate
T10 construct: purchased Eurofins Pharma Discovery Services
Description: as §1

PI3 Kinase (p110α/p85α) = biological target: T11, PI3 Kinase (p110α/p85α) (Homo sapiens, UniProt P42336); conditions: ZY0511 1 µM, read-out: Inhibition rate
T11 construct: purchased Eurofins Pharma Discovery Services (KinaseProfiler)
Description: as §1

HIPK3 = biological target: T12, HIPK3 (Homo sapiens, UniProt Q9H422); conditions: ZY0511 1 µM, read-out: Inhibition rate
T12 construct: purchased Eurofins Pharma Discovery Services (KinaseProfiler)
Description: as §1

FAK = biological target: T13, FAK (Homo sapiens, UniProt Q05397); conditions: ZY0511 1 µM, read-out: Inhibition rate
T13 construct: purchased Eurofins Pharma Discovery Services
Description: as §1

cKit = biological target: T14, cKit (Homo sapiens, UniProt P10721); conditions: ZY0511 1 µM, read-out: Activation rate
T14 construct: purchased Eurofins Pharma Discovery Services (KinaseProfiler)
Description: as §1

Flt1 = biological target: T15, Flt1 (Homo sapiens, UniProt P17948); conditions: ZY0511 1 µM, read-out: Inhibition rate
T15 construct: purchased Eurofins Pharma Discovery Services (KinaseProfiler)
Description: as §1

PAK1 = biological target: T16, PAK1 (Homo sapiens, UniProt Q13153); conditions: ZY0511 1 µM, read-out: Activation rate
T16 construct: purchased Eurofins Pharma Discovery Services (KinaseProfiler)
Description: as §1

FGFR1 = biological target: T17, FGFR1 (Homo sapiens, UniProt P11362); conditions: ZY0511 1 µM, read-out: Activation rate
T17 construct: purchased Eurofins Pharma Discovery Services (KinaseProfiler)
Description: as §1

PKCµ = biological target: T18, PKCµ (Homo sapiens, UniProt Q15139); conditions: ZY0511 1 µM, read-out: Inhibition rate
T18 construct: purchased Eurofins Pharma Discovery Services
Description: as §1

Abl = biological target: T19, Abl (Homo sapiens, UniProt P00519); conditions: ZY0511 1 µM, read-out: Inhibition rate
T19 construct: purchased Eurofins Pharma Discovery Services
Description: as §1

PI3 Kinase (p110βγ/p85α) = biological target: T20, PI3 Kinase (p110βγ/p85α) (Homo sapiens, UniProt P42338); conditions: ZY0511 1 µM, read-out: Inhibition rate
T20 construct: purchased Eurofins Pharma Discovery Services (KinaseProfiler)
Description: as §1

B-Raf = biological target: T21, B-Raf (Homo sapiens, UniProt P15056); conditions: ZY0511 1 µM, read-out: Inhibition rate
T21 construct: purchased Eurofins Pharma Discovery Services (KinaseProfiler)
Description: as §1

DAPK1 = biological target: T22, DAPK1 (Homo sapiens, UniProt P53355); conditions: ZY0511 1 µM, read-out: Activation rate
T22 construct: purchased Eurofins Pharma Discovery Services (KinaseProfiler)
Description: as §1

ZIPK = biological target: T23, ZIPK (Homo sapiens, UniProt O43293); conditions: ZY0511 1 µM, read-out: Inhibition rate
T23 construct: purchased Eurofins Pharma Discovery Services (KinaseProfiler)
Description: as §1

ErbB2 = biological target: T24, ErbB2 (Homo sapiens, UniProt P04626); conditions: ZY0511 1 µM, read-out: Activation rate
T24 construct: purchased Eurofins Pharma Discovery Services (KinaseProfiler)
Description: as §1

c-RAF = biological target: T25, c-RAF (Homo sapiens, UniProt P04049); conditions: ZY0511 1 µM, read-out: Inhibition rate
T25 construct: purchased Eurofins Pharma Discovery Services (KinaseProfiler)
Description: as §1

CDK1/CyclinB = biological target: T26, CDK1/CyclinB (Homo sapiens, UniProt P06493); conditions: ZY0511 1 µM, read-out: Activation rate
T26 construct: purchased Eurofins Pharma Discovery Services (KinaseProfiler)
Description: as §1

EGFR (L858R) = biological target: T27, EGFR (L858R) (Homo sapiens, UniProt P00533, L858R); conditions: ZY0511 1 µM, read-out: Inhibition rate
T27 construct: purchased Eurofins Pharma Discovery Services (KinaseProfiler)
Description: as §1

ROCK-I = biological target: T28, ROCK-I (Homo sapiens, UniProt Q13464); conditions: ZY0511 1 µM, read-out: Inhibition rate
T28 construct: purchased Eurofins Pharma Discovery Services
Description: as §1

Ron = biological target: T29, Ron (Homo sapiens, UniProt Q04912); conditions: ZY0511 1 µM, read-out: Activation rate
T29 construct: purchased Eurofins Pharma Discovery Services (KinaseProfiler)
Description: as §1

ALK = biological target: T30, ALK (Homo sapiens, UniProt Q9UM73); conditions: ZY0511 1 µM, read-out: Activation rate
T30 construct: purchased Eurofins Pharma Discovery Services (KinaseProfiler)
Description: as §1

Axl = biological target: T31, Axl (Homo sapiens, UniProt P30530); conditions: ZY0511 1 µM, read-out: Activation rate
T31 construct: purchased Eurofins Pharma Discovery Services (KinaseProfiler)
Description: as §1

MELK = biological target: T32, MELK (Homo sapiens, UniProt Q14680); conditions: ZY0511 1 µM, read-out: Inhibition rate
T32 construct: purchased Eurofins Pharma Discovery Services
Description: as §1

CDK2/cyclinA = biological target: T33, CDK2/cyclinA (Homo sapiens, UniProt P24941); conditions: ZY0511 1 µM, read-out: Inhibition rate
T33 construct: purchased Eurofins Pharma Discovery Services
Description: as §1

ErbB4 = biological target: T34, ErbB4 (Homo sapiens, UniProt Q15303); conditions: ZY0511 1 µM, read-out: Activation rate
T34 construct: purchased Eurofins Pharma Discovery Services (KinaseProfiler)
Description: as §1

CK1γ3 = biological target: T35, CK1γ3 (Homo sapiens, UniProt Q9Y6M4); conditions: ZY0511 1 µM, read-out: Inhibition rate
T35 construct: purchased Eurofins Pharma Discovery Services (KinaseProfiler)
Description: as §1

EGFR = biological target: T36, EGFR (Homo sapiens, UniProt P00533); conditions: ZY0511 1 µM, read-out: Inhibition rate
T36 construct: purchased Eurofins Pharma Discovery Services (KinaseProfiler)
Description: as §1

PAK4 = biological target: T37, PAK4 (Homo sapiens, UniProt O96013); conditions: ZY0511 1 µM, read-out: Inhibition rate
T37 construct: purchased Eurofins Pharma Discovery Services (KinaseProfiler)
Description: as §1

cSRC = biological target: T38, cSRC (Homo sapiens, UniProt P12931); conditions: ZY0511 1 µM, read-out: Activation rate
T38 construct: purchased Eurofins Pharma Discovery Services (KinaseProfiler)
Description: as §1

PI3 Kinase (p110δ/p85α) = biological target: T39, PI3 Kinase (p110δ/p85α) (Homo sapiens, UniProt O00329); conditions: ZY0511 1 µM, read-out: Inhibition rate
T39 construct: purchased Eurofins Pharma Discovery Services (KinaseProfiler)
Description: as §1

Ret = biological target: T40, Ret (Homo sapiens, UniProt P07949); conditions: ZY0511 1 µM, read-out: Activation rate
T40 construct: purchased Eurofins Pharma Discovery Services (KinaseProfiler)
Description: as §1

DNA-PK = biological target: T41, DNA-PK (Homo sapiens, UniProt P78527)
T41 construct: purchased Eurofins Pharma Discovery Services
Description: as §1

T9 sequence (P35916 25-1363, species assumed): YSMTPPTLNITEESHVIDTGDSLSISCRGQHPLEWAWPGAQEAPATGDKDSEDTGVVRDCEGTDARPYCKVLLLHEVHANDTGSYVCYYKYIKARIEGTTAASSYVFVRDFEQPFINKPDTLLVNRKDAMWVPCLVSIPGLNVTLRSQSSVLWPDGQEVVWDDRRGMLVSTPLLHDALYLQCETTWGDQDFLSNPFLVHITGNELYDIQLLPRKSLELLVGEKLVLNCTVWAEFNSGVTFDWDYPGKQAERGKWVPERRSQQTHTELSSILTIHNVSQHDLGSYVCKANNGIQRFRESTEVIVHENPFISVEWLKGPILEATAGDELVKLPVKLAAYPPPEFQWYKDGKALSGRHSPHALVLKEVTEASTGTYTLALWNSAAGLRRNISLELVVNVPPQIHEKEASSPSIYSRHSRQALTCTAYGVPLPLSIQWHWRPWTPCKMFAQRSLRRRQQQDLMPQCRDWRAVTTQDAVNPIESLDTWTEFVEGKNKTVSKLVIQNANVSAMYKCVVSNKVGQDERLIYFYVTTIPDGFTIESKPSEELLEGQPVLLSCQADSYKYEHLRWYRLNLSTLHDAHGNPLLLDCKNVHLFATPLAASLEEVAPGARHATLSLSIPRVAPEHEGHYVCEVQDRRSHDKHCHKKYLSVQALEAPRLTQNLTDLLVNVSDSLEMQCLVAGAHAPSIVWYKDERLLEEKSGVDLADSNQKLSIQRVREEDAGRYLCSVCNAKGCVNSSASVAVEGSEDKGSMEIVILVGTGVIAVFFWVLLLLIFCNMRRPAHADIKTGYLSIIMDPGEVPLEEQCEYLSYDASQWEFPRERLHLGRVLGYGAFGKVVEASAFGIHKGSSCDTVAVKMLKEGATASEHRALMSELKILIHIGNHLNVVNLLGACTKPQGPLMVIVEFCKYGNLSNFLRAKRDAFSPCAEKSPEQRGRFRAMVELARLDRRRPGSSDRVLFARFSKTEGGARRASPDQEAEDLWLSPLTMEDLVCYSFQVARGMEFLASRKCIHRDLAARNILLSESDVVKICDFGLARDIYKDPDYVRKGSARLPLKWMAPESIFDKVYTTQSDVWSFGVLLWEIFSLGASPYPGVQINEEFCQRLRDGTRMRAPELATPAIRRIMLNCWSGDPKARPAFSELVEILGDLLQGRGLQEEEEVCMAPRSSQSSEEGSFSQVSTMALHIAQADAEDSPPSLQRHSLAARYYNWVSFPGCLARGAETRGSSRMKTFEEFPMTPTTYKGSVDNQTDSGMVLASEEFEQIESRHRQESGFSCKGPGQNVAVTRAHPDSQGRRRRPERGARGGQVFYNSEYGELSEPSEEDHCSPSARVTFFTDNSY
T31 sequence (P30530 26-894): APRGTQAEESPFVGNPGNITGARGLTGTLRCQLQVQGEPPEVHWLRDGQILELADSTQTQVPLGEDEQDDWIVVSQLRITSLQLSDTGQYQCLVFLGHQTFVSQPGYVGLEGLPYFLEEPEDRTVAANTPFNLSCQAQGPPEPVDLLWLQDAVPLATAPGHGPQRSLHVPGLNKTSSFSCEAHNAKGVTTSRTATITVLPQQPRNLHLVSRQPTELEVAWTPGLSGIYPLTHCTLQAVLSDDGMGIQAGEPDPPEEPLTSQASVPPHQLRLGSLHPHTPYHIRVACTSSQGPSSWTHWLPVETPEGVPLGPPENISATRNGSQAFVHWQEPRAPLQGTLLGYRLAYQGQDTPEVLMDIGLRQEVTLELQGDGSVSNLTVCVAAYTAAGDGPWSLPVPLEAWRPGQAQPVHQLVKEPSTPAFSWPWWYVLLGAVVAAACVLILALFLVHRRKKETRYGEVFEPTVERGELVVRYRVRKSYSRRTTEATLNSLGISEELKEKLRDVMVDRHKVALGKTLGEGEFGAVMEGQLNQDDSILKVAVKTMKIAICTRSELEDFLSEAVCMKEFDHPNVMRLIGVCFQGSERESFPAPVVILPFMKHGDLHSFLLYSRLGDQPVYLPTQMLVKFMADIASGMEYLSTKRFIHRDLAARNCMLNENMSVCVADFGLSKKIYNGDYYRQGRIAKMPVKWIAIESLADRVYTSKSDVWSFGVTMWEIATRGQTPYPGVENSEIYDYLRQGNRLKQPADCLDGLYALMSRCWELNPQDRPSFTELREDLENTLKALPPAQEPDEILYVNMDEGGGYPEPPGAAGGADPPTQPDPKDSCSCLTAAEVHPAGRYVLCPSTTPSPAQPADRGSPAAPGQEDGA
T40 sequence (P07949 29-1114): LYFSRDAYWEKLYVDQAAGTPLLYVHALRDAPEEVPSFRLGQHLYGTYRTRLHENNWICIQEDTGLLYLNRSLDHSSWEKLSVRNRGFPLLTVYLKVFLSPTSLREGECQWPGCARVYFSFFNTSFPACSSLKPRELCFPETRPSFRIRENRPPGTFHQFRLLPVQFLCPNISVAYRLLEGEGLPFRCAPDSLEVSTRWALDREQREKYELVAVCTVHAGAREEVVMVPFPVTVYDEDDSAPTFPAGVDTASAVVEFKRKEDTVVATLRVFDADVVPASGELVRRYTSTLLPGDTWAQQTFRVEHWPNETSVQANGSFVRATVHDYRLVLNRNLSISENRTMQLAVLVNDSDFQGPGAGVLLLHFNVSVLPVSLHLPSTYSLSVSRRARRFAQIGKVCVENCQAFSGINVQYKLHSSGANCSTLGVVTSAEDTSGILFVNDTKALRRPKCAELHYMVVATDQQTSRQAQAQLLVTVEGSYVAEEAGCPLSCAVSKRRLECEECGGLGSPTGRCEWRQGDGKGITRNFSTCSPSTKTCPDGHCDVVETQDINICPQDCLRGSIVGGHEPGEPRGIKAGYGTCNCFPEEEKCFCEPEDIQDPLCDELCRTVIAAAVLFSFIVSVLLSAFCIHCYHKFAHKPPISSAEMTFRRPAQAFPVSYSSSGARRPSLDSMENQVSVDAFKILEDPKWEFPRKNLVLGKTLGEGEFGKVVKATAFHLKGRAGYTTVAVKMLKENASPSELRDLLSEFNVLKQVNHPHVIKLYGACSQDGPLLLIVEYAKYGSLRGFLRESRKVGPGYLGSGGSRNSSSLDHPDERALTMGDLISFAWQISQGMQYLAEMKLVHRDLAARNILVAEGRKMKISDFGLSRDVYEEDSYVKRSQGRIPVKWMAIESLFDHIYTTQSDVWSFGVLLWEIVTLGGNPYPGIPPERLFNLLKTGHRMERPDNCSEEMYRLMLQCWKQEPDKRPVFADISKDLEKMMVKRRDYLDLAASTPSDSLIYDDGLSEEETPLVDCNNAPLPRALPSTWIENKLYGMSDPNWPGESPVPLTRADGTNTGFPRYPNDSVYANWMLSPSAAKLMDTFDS
T32 sequence (Q14680 whole entry, species assumed): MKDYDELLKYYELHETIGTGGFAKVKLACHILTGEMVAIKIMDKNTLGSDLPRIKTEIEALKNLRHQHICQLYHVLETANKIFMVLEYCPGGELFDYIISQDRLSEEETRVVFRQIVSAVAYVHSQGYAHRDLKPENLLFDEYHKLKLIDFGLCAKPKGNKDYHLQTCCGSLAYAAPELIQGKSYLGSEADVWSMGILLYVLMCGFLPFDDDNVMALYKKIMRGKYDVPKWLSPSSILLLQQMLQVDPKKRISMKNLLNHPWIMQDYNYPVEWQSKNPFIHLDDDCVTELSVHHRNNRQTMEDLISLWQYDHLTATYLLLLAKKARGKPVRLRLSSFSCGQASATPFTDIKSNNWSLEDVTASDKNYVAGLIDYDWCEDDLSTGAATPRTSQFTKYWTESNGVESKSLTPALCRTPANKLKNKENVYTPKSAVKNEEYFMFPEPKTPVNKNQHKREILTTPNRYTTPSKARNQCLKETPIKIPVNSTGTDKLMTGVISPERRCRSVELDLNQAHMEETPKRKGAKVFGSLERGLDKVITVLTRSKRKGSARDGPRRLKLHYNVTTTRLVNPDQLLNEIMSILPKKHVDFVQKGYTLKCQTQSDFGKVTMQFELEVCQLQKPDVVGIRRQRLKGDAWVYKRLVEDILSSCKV
T14 sequence (P10721 26-976): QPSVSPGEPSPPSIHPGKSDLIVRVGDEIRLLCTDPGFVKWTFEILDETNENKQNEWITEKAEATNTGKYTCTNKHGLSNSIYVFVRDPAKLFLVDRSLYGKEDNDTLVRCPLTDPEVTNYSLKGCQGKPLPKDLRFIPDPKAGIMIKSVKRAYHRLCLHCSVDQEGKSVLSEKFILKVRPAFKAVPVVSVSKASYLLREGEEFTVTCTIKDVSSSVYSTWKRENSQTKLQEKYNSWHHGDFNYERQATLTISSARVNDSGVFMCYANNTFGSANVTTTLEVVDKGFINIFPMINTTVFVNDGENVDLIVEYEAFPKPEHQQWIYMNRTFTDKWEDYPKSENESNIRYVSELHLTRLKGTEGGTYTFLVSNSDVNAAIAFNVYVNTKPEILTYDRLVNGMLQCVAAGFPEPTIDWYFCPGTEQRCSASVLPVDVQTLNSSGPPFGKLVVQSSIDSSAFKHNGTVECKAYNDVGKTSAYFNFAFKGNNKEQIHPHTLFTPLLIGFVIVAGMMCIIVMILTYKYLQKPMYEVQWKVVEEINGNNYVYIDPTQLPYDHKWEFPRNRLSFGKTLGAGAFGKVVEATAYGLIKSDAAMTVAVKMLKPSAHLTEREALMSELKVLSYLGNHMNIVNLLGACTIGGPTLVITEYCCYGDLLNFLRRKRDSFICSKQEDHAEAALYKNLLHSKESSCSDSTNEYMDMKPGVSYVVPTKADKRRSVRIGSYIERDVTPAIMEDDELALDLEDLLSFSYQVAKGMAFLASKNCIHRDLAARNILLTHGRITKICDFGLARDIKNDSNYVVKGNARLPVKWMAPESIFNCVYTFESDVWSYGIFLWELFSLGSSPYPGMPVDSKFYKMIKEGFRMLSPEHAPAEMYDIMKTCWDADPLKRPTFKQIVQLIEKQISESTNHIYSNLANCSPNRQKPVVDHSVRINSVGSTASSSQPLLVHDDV

SMILES: O=C(N/N=C1\CCc2c(Cl)ccc(O)c21)c1cccc(S(=O)(=O)N2CCOCC2)c1 [ZY0511, (E)‐N'‐(2, 3‐dihydro‐1H‐inden‐1‐ylidene) benzohydrazides]
- activation at 1 µM (ZAP-70): 4%
- inhibition at 1 µM (Ros): 11%
- activation at 1 µM (EphA2): 5%
- inhibition at 1 µM (Aurora-A): 17%
- inhibition at 1 µM (PKCι): 2%
- inhibition at 1 µM [1]: 2%
- inhibition at 1 µM (PKBα): 4%
- inhibition at 1 µM (FGFR2): 11%
- IC50 (Flt4): > 10 µM
- inhibition at 1 µM (Flt4; ZY0511 1 µM, read-out: Inhibition rate): 62%
- inhibition at 1 µM (PKCθ): 3%
- inhibition at 1 µM (PI3 Kinase (p110α/p85α)): 6%
- inhibition at 1 µM (HIPK3): 6%
- inhibition at 1 µM (FAK): 3%
- activation at 1 µM (cKit): 14%
- inhibition at 1 µM (Flt1): 20%
- activation at 1 µM (PAK1): 1%
- activation at 1 µM (FGFR1): 1%
- inhibition at 1 µM (PKCµ): 10%
- inhibition at 1 µM (Abl): 13%
- inhibition at 1 µM (PI3 Kinase (p110βγ/p85α)): 8%
- inhibition at 1 µM (B-Raf): 29%
- activation at 1 µM (DAPK1): 5%
- inhibition at 1 µM (ZIPK): 6%
- activation at 1 µM (ErbB2): 25%
- inhibition at 1 µM (c-RAF): 43%
- activation at 1 µM (CDK1/CyclinB): 3%
- inhibition at 1 µM (EGFR (L858R)): 8%
- inhibition at 1 µM (ROCK-I): 11%
- activation at 1 µM (Ron): 7%
- activation at 1 µM (ALK): 23%
- activation at 1 µM (Axl): 3%
- inhibition at 1 µM (MELK): 1%
- inhibition at 1 µM (CDK2/cyclinA): 10%
- activation at 1 µM (ErbB4): 10%
- inhibition at 1 µM (CK1γ3): 21%
- inhibition at 1 µM (EGFR): 7%
- inhibition at 1 µM (PAK4): 20%
- activation at 1 µM (cSRC): 4%
- inhibition at 1 µM (PI3 Kinase (p110δ/p85α)): 6%
- activation at 1 µM (Ret): 15%
- inhibition at 1 µM (DNA-PK; DNA-PK, ZY0511 1 µM, read-out: Inhibition rate): 60%
- IC50 (DNA-PK; DNA‐PK): > 10 µM

— publication PMC10209615, “Pharmacological inhibition of LSD1 suppresses growth of hepatocellular carcinoma by inducing GADD45B” (MedComm, 2023)
